# Laboratory results reported in the NIST ThermoML archive (doi:10.1021/acs.jced.6b00542).
# Numbers after ± are expanded uncertainties.
# Assay: xn = mol fraction of the nth substance listed
# Conditions: for surface tension liquid-gas: 294.5 K, Pendant drop shape; for speed of sound: 100 kPa, Frequency=3 MHz, Sing-around technique in a fixed-path interferometer; for speed of sound / viscosity / mass density: Liquid; for viscosity / mass density: 102 kPa; for viscosity: Concentric cylinders viscometry; for mass density: Vibrating tube method
compound,measurement,setting,value
CCCCCCCCCCCCCCCCC [heptadecane] + CCCCc1ccccc1,surface tension liquid-gas,x2 = 0.1662,27.6 ± 0.4 mN/m
same,surface tension liquid-gas,x2 = 0.3047,27.7 ± 0.4 mN/m
same,surface tension liquid-gas,x2 = 0.4587,28 ± 0.4 mN/m
same,surface tension liquid-gas,x2 = 0.6419,28.2 ± 0.4 mN/m
same,surface tension liquid-gas,x2 = 0.7515,28.3 ± 0.4 mN/m
same,surface tension liquid-gas,x2 = 0.8742,29.2 ± 0.4 mN/m
same,speed of sound,"303.15 K, x2 = 0",1330.9 ± 1.2 m/s
same,speed of sound,"303.15 K, x2 = 0.1662",1325.3 ± 0.9 m/s
same,speed of sound,"303.15 K, x2 = 0.3047",1321.4 ± 1 m/s
same,speed of sound,"303.15 K, x2 = 0.4587",1316.9 ± 0.9 m/s
same,speed of sound,"303.15 K, x2 = 0.6419",1312.4 ± 0.9 m/s
same,speed of sound,"303.15 K, x2 = 0.7515",1311.3 ± 1 m/s
same,speed of sound,"303.15 K, x2 = 0.8742",1311 ± 0.9 m/s
same,viscosity,"303.15 K, x2 = 0",3.25 ± 0.02 mPa·s
same,viscosity,"303.15 K, x2 = 0.1662",2.73 ± 0.01 mPa·s
same,viscosity,"303.15 K, x2 = 0.3047",2.35 ± 0.01 mPa·s
same,viscosity,"303.15 K, x2 = 0.4587",1.96 ± 0.01 mPa·s
same,viscosity,"303.15 K, x2 = 0.6419",1.56 ± 0.01 mPa·s
same,viscosity,"303.15 K, x2 = 0.7515",1.35 ± 0.01 mPa·s
same,viscosity,"303.15 K, x2 = 0.8742",1.13 ± 0.01 mPa·s
same,mass density,"303.15 K, x2 = 0",771.02 ± 0.13 kg/m3
same,mass density,"303.15 K, x2 = 0.1662",777.94 ± 0.13 kg/m3
same,mass density,"303.15 K, x2 = 0.3047",784.91 ± 0.13 kg/m3
same,mass density,"303.15 K, x2 = 0.4587",794.08 ± 0.13 kg/m3
same,mass density,"303.15 K, x2 = 0.6419",808.08 ± 0.12 kg/m3
same,mass density,"303.15 K, x2 = 0.7515",818.66 ± 0.12 kg/m3
same,mass density,"303.15 K, x2 = 0.8742",833.23 ± 0.12 kg/m3
same,speed of sound,"313.15 K, x2 = 0",1294.5 ± 1.1 m/s
same,speed of sound,"313.15 K, x2 = 0.1662",1289 ± 0.9 m/s
same,speed of sound,"313.15 K, x2 = 0.3047",1285 ± 0.9 m/s
same,speed of sound,"313.15 K, x2 = 0.4587",1280.3 ± 0.9 m/s
same,speed of sound,"313.15 K, x2 = 0.6419",1275.9 ± 0.9 m/s
same,speed of sound,"313.15 K, x2 = 0.7515",1274.1 ± 0.9 m/s
same,speed of sound,"313.15 K, x2 = 0.8742",1273.6 ± 0.9 m/s
same,viscosity,"313.15 K, x2 = 0",2.61 ± 0.01 mPa·s
same,viscosity,"313.15 K, x2 = 0.1662",2.23 ± 0.01 mPa·s
same,viscosity,"313.15 K, x2 = 0.3047",1.94 ± 0.01 mPa·s
same,viscosity,"313.15 K, x2 = 0.4587",1.64 ± 0.01 mPa·s
same,viscosity,"313.15 K, x2 = 0.6419",1.32 ± 0.01 mPa·s
same,viscosity,"313.15 K, x2 = 0.7515",1.15 ± 0.01 mPa·s
same,viscosity,"313.15 K, x2 = 0.8742",0.967 ± 0.007 mPa·s
same,mass density,"313.15 K, x2 = 0",764.16 ± 0.13 kg/m3
same,mass density,"313.15 K, x2 = 0.1662",771 ± 0.13 kg/m3
same,mass density,"313.15 K, x2 = 0.3047",777.87 ± 0.13 kg/m3
same,mass density,"313.15 K, x2 = 0.4587",786.92 ± 0.13 kg/m3
same,mass density,"313.15 K, x2 = 0.6419",800.73 ± 0.12 kg/m3
same,mass density,"313.15 K, x2 = 0.7515",811.14 ± 0.12 kg/m3
same,mass density,"313.15 K, x2 = 0.8742",825.49 ± 0.12 kg/m3
same,speed of sound,"323.15 K, x2 = 0",1258.8 ± 0.9 m/s
same,speed of sound,"323.15 K, x2 = 0.1662",1253.3 ± 0.8 m/s
same,speed of sound,"323.15 K, x2 = 0.3047",1249.2 ± 0.8 m/s
same,speed of sound,"323.15 K, x2 = 0.4587",1244.5 ± 0.8 m/s
same,speed of sound,"323.15 K, x2 = 0.6419",1239.7 ± 0.8 m/s
same,speed of sound,"323.15 K, x2 = 0.7515",1237.6 ± 0.8 m/s
same,speed of sound,"323.15 K, x2 = 0.8742",1236.6 ± 0.8 m/s
same,viscosity,"323.15 K, x2 = 0",2.14 ± 0.01 mPa·s
same,viscosity,"323.15 K, x2 = 0.1662",1.85 ± 0.01 mPa·s
same,viscosity,"323.15 K, x2 = 0.3047",1.62 ± 0.01 mPa·s
same,viscosity,"323.15 K, x2 = 0.4587",1.39 ± 0.01 mPa·s
same,viscosity,"323.15 K, x2 = 0.6419",1.14 ± 0.01 mPa·s
same,viscosity,"323.15 K, x2 = 0.7515",1 ± 0.01 mPa·s
same,viscosity,"323.15 K, x2 = 0.8742",0.844 ± 0.007 mPa·s
same,mass density,"323.15 K, x2 = 0",757.3 ± 0.14 kg/m3
same,mass density,"323.15 K, x2 = 0.1662",764.03 ± 0.13 kg/m3
same,mass density,"323.15 K, x2 = 0.3047",770.84 ± 0.13 kg/m3
same,mass density,"323.15 K, x2 = 0.4587",779.75 ± 0.13 kg/m3
same,mass density,"323.15 K, x2 = 0.6419",793.34 ± 0.13 kg/m3
same,mass density,"323.15 K, x2 = 0.7515",803.6 ± 0.12 kg/m3
same,mass density,"323.15 K, x2 = 0.8742",817.71 ± 0.12 kg/m3
same,speed of sound,"333.15 K, x2 = 0",1223.8 ± 0.8 m/s
same,speed of sound,"333.15 K, x2 = 0.1662",1218.1 ± 0.8 m/s
same,speed of sound,"333.15 K, x2 = 0.3047",1214 ± 0.8 m/s
same,speed of sound,"333.15 K, x2 = 0.4587",1209.1 ± 0.8 m/s
same,speed of sound,"333.15 K, x2 = 0.6419",1204 ± 0.8 m/s
same,speed of sound,"333.15 K, x2 = 0.7515",1201.6 ± 0.8 m/s
same,speed of sound,"333.15 K, x2 = 0.8742",1200.1 ± 0.8 m/s
same,viscosity,"333.15 K, x2 = 0",1.79 ± 0.01 mPa·s
same,viscosity,"333.15 K, x2 = 0.1662",1.56 ± 0.01 mPa·s
same,viscosity,"333.15 K, x2 = 0.3047",1.38 ± 0.01 mPa·s
same,viscosity,"333.15 K, x2 = 0.4587",1.2 ± 0.01 mPa·s
same,viscosity,"333.15 K, x2 = 0.6419",0.981 ± 0.007 mPa·s
same,viscosity,"333.15 K, x2 = 0.7515",0.865 ± 0.007 mPa·s
same,viscosity,"333.15 K, x2 = 0.8742",0.747 ± 0.006 mPa·s
same,mass density,"333.15 K, x2 = 0",750.45 ± 0.14 kg/m3
same,mass density,"333.15 K, x2 = 0.1662",757.11 ± 0.14 kg/m3
same,mass density,"333.15 K, x2 = 0.3047",763.79 ± 0.13 kg/m3
same,mass density,"333.15 K, x2 = 0.4587",772.56 ± 0.13 kg/m3
same,mass density,"333.15 K, x2 = 0.6419",785.94 ± 0.13 kg/m3
same,mass density,"333.15 K, x2 = 0.7515",796.02 ± 0.13 kg/m3
same,mass density,"333.15 K, x2 = 0.8742",809.9 ± 0.12 kg/m3
same,viscosity,"343.15 K, x2 = 0",1.52 ± 0.01 mPa·s
same,viscosity,"343.15 K, x2 = 0.1662",1.33 ± 0.01 mPa·s
same,viscosity,"343.15 K, x2 = 0.3047",1.19 ± 0.01 mPa·s
same,viscosity,"343.15 K, x2 = 0.4587",1.04 ± 0.01 mPa·s
same,viscosity,"343.15 K, x2 = 0.6419",0.861 ± 0.007 mPa·s
same,viscosity,"343.15 K, x2 = 0.7515",0.768 ± 0.006 mPa·s
same,viscosity,"343.15 K, x2 = 0.8742",0.671 ± 0.006 mPa·s
same,mass density,"343.15 K, x2 = 0",743.7 ± 0.23 kg/m3
same,mass density,"343.15 K, x2 = 0.1662",750.12 ± 0.23 kg/m3
same,mass density,"343.15 K, x2 = 0.3047",756.65 ± 0.23 kg/m3
same,mass density,"343.15 K, x2 = 0.4587",765.4 ± 0.23 kg/m3
same,mass density,"343.15 K, x2 = 0.6419",778.47 ± 0.23 kg/m3
same,mass density,"343.15 K, x2 = 0.7515",788.4 ± 0.23 kg/m3
same,mass density,"343.15 K, x2 = 0.8742",802 ± 0.23 kg/m3
same,viscosity,"353.15 K, x2 = 0",1.3 ± 0.01 mPa·s
same,viscosity,"353.15 K, x2 = 0.1662",1.16 ± 0.01 mPa·s
same,viscosity,"353.15 K, x2 = 0.3047",1.04 ± 0.01 mPa·s
same,viscosity,"353.15 K, x2 = 0.4587",0.906 ± 0.007 mPa·s
same,viscosity,"353.15 K, x2 = 0.6419",0.763 ± 0.006 mPa·s
same,viscosity,"353.15 K, x2 = 0.7515",0.684 ± 0.006 mPa·s
same,viscosity,"353.15 K, x2 = 0.8742",0.602 ± 0.006 mPa·s
same,mass density,"353.15 K, x2 = 0",736.8 ± 0.2 kg/m3
same,mass density,"353.15 K, x2 = 0.1662",743.1 ± 0.2 kg/m3
same,mass density,"353.15 K, x2 = 0.3047",749.6 ± 0.2 kg/m3
same,mass density,"353.15 K, x2 = 0.4587",758.1 ± 0.2 kg/m3
same,mass density,"353.15 K, x2 = 0.6419",771 ± 0.2 kg/m3
same,mass density,"353.15 K, x2 = 0.7515",780.7 ± 0.2 kg/m3
same,mass density,"353.15 K, x2 = 0.8742",794.1 ± 0.2 kg/m3
same,viscosity,"363.15 K, x2 = 0",1.14 ± 0.01 mPa·s
same,viscosity,"363.15 K, x2 = 0.1662",1.01 ± 0.01 mPa·s
same,viscosity,"363.15 K, x2 = 0.3047",0.909 ± 0.007 mPa·s
same,viscosity,"363.15 K, x2 = 0.4587",0.805 ± 0.006 mPa·s
same,viscosity,"363.15 K, x2 = 0.6419",0.687 ± 0.006 mPa·s
same,viscosity,"363.15 K, x2 = 0.7515",0.623 ± 0.006 mPa·s
same,viscosity,"363.15 K, x2 = 0.8742",0.546 ± 0.006 mPa·s
same,mass density,"363.15 K, x2 = 0",729.8 ± 0.2 kg/m3
same,mass density,"363.15 K, x2 = 0.1662",736.1 ± 0.2 kg/m3
same,mass density,"363.15 K, x2 = 0.3047",742.4 ± 0.2 kg/m3
same,mass density,"363.15 K, x2 = 0.4587",750.8 ± 0.2 kg/m3
same,mass density,"363.15 K, x2 = 0.6419",763.4 ± 0.2 kg/m3
same,mass density,"363.15 K, x2 = 0.7515",773 ± 0.2 kg/m3
same,mass density,"363.15 K, x2 = 0.8742",786.1 ± 0.2 kg/m3
same,viscosity,"373.15 K, x2 = 0",1 ± 0.01 mPa·s
same,viscosity,"373.15 K, x2 = 0.1662",0.891 ± 0.007 mPa·s
same,viscosity,"373.15 K, x2 = 0.3047",0.811 ± 0.006 mPa·s
same,viscosity,"373.15 K, x2 = 0.4587",0.725 ± 0.006 mPa·s
same,viscosity,"373.15 K, x2 = 0.6419",0.628 ± 0.006 mPa·s
same,viscosity,"373.15 K, x2 = 0.7515",0.567 ± 0.006 mPa·s
same,viscosity,"373.15 K, x2 = 0.8742",0.499 ± 0.005 mPa·s
same,mass density,"373.15 K, x2 = 0",723 ± 0.2 kg/m3
same,mass density,"373.15 K, x2 = 0.1662",729 ± 0.2 kg/m3
same,mass density,"373.15 K, x2 = 0.3047",735.2 ± 0.2 kg/m3
same,mass density,"373.15 K, x2 = 0.4587",743.5 ± 0.2 kg/m3
same,mass density,"373.15 K, x2 = 0.6419",755.8 ± 0.2 kg/m3
same,mass density,"373.15 K, x2 = 0.7515",765.2 ± 0.2 kg/m3
same,mass density,"373.15 K, x2 = 0.8742",778.1 ± 0.2 kg/m3
